Assay results reported in PubChem BioAssay AID270 (DTP/NCI, 2004).
Results filed as inconclusive are left out.

System: BDF1 mice, s.c. Lewis lung carcinoma, T/C %
Experiment: NCI In Vivo Anticancer Drug Screen. Data for tumor model Lewis Lung Carcinoma (subcutaneous) in B6D2F1 (BDF1) mice
Procedure, shortened: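 First, mice carry a transplantable tumor. Next, groups receive either compound or vehicle. Finally, survival or tumor dimensions in the dosed animals are divided by the corresponding control figure.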

C[C@]12CCC(=O)C=C1CC[C@@H]1[C@@H]2[C@@H](O)C[C@@]2(C)[C@H]1CC[C@]2(O)C(=O)COC(=O)c1ccc([N+](=O)[O-])cc1Cl
T/C (endpoint: mean tumor weight, dose: 25.0 mg/kg/injection, schedule: Q01DX011 (sc), vehicle: steriod suspending solution, higher = larger tumour): 65 % of control
T/C (endpoint: mean tumor weight, dose: 50.0 mg/kg/injection, schedule: Q01DX011 (sc), vehicle: steriod suspending solution, higher = larger tumour): 71 % of control
T/C (endpoint: mean tumor weight, dose: 100.0 mg/kg/injection, schedule: Q01DX011 (sc), vehicle: steriod suspending solution, higher = larger tumour): 47 % of control
T/C (endpoint: mean tumor weight, dose: 200.0 mg/kg/injection, schedule: Q01DX011 (sc), vehicle: steriod suspending solution, higher = larger tumour): 53 % of control
T/C (endpoint: mean tumor weight, dose: 250.0 mg/kg/injection, schedule: Q01DX011 (sc), vehicle: steriod suspending solution, higher = larger tumour): 18 % of control
T/C (endpoint: mean tumor weight, dose: 500.0 mg/kg/injection, schedule: Q01DX011 (sc), vehicle: steriod suspending solution, higher = larger tumour): 25 % of control
T/C (endpoint: mean tumor weight, dose: 750.0 mg/kg/injection, schedule: Q01DX011 (sc), vehicle: steriod suspending solution, higher = larger tumour): 13 % of control

COc1cc2c3c(c1)/C(=N\Nc1ccccc1)CCN3CCC2
T/C (endpoint: median survival time, dose: 0.78 mg/kg/injection, schedule: Q01DX009 (ip), vehicle: DMSO, higher = longer survival): 112 % of control
T/C (endpoint: median survival time, dose: 3.0 mg/kg/injection, schedule: Q01DX009 (ip), vehicle: DMSO, higher = longer survival): 124 % of control

CN(C)N=Nc1n[nH]nc1C(N)=O
T/C (endpoint: median tumor weight (est.), dose: 134.5 mg/kg/injection, schedule: Q01DX009 (ip), vehicle: saline, higher = larger tumour): 102 % of control
T/C (endpoint: median tumor weight (est.), dose: 269.0 mg/kg/injection, schedule: Q01DX009 (ip), vehicle: saline, higher = larger tumour): 81 % of control
T/C (endpoint: median tumor weight (est.), dose: 538.0 mg/kg/injection, schedule: Q01DX009 (ip), vehicle: saline, higher = larger tumour): 79 % of control

C[C@]12CC[C@H]3[C@@H](CC[C@]4(O)C[C@@H](O)CC[C@]34/C=N/O)[C@@]1(O)CC[C@@H]2C1=COC(=O)C1
T/C (endpoint: mean tumor weight, dose: 1.87 mg/kg/injection, schedule: Q01DX011 (ip), vehicle: carboxymethylcellulose (CMC), higher = larger tumour): 34 % of control
T/C (endpoint: mean tumor weight, dose: 3.75 mg/kg/injection, schedule: Q01DX011 (ip), vehicle: carboxymethylcellulose (CMC), higher = larger tumour): 58 % of control
T/C (endpoint: mean tumor weight, dose: 15.0 mg/kg/injection, schedule: Q01DX011 (ip), vehicle: carboxymethylcellulose (CMC), higher = larger tumour): 92 % of control
T/C (endpoint: mean tumor weight, dose: 30.0 mg/kg/injection, schedule: Q01DX011 (ip), vehicle: carboxymethylcellulose (CMC), higher = larger tumour): 61 % of control
